# Values joined by “and” are separate entries in the source; they are usually repeats but may differ in a detail not shown here. Identical values can stand only once. Inconclusive results and toxic doses are left out.
# Test system: B6C3F1 mice, Lewis lung carcinoma iv, survival T/C
# Test: NCI In Vivo Anticancer Drug Screen. Data for tumor model Lewis Lung Carcinoma (intravenous) in B6C3F1 mice
# Details: endpoint: median survival time, schedule: Q01DX009 (ip), higher = longer survival
# Summary of the method: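 T/C ratio derived from survival of compound-treated versus vehicle-treated mice bearing transplantable tumors.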
# [1] = dose: 12.5 mg/kg/injection, vehicle: saline with Tween-80
# [2] = dose: 25.0 mg/kg/injection, vehicle: saline with Tween-80
# [3] = dose: 50.0 mg/kg/injection, vehicle: saline with Tween-80
# [4] = dose: 100.0 mg/kg/injection, vehicle: saline with Tween-80
# [5] = dose: 25.0 mg/kg/injection, vehicle: Klucel (hydroxypropylcellulose) (HPC)
# [6] = dose: 50.0 mg/kg/injection, vehicle: Klucel (hydroxypropylcellulose) (HPC)
# [7] = dose: 100.0 mg/kg/injection, vehicle: Klucel (hydroxypropylcellulose) (HPC)
# [8] = dose: 200.0 mg/kg/injection, vehicle: Klucel (hydroxypropylcellulose) (HPC)
# [9] = dose: 12.5 mg/kg/injection, vehicle: Klucel (hydroxypropylcellulose) (HPC)
# [10] = dose: 6.25 mg/kg/injection, vehicle: Klucel (hydroxypropylcellulose) (HPC)
# [11] = dose: 200.0 mg/kg/injection, vehicle: saline with Tween-80
# [12] = dose: 400.0 mg/kg/injection, vehicle: saline with Tween-80
compound,measurement,setting,value
C[C@H](N)C(=O)N[C@@H]1[C@H]2C(=C(O)C[C@@H](O)[C@@H]2O)C(=O)O[C@@H]1C,T/C,"dose: 75.0 mg/kg/injection, vehicle: saline",102 % of control and 106 % of control
same,T/C,"dose: 150.0 mg/kg/injection, vehicle: saline",105 % of control and 106 % of control
same,T/C,"dose: 300.0 mg/kg/injection, vehicle: saline",107 % of control and 110 % of control
same,T/C,"dose: 600.0 mg/kg/injection, vehicle: saline",114 % of control and 120 % of control
same,T/C,"dose: 1200.0 mg/kg/injection, vehicle: saline",117 % of control
Nc1nc2c(C(=O)N3CCCC3)nnn2c2ccccc12,T/C,"dose: 6.25 mg/kg/injection, vehicle: saline with Tween-80",100 % of control
same,T/C,[1],99 % of control
same,T/C,[2],100 % of control
same,T/C,[3],107 % of control
same,T/C,[4],99 % of control
CC(C)(C)c1ccc(CN2CCN(C(c3ccccc3)c3ccc(Cl)cc3)CC2)cc1 (configuration not stated),T/C,"dose: 8.0 mg/kg/injection, vehicle: Klucel (hydroxypropylcellulose) (HPC)",117 % of control
same,T/C,"dose: 16.0 mg/kg/injection, vehicle: Klucel (hydroxypropylcellulose) (HPC)",115 % of control
same,T/C,"dose: 32.0 mg/kg/injection, vehicle: Klucel (hydroxypropylcellulose) (HPC)",105 % of control
same,T/C,"dose: 64.0 mg/kg/injection, vehicle: Klucel (hydroxypropylcellulose) (HPC)",103 % of control
C[CH2][Sn]1([CH2]C)[O]OC(c2ccccc2)[O]1 (configuration not stated),T/C,"dose: 0.78 mg/kg/injection, vehicle: saline with Tween-80",97 % of control
same,T/C,"dose: 1.56 mg/kg/injection, vehicle: saline with Tween-80",100 % of control
same,T/C,"dose: 3.12 mg/kg/injection, vehicle: saline with Tween-80",100 % of control
same,T/C,[1],95 % of control
CNC(=O)OCc1c(COC(=O)NC)c(-c2ccc(Cl)c(Cl)c2)n2c1Cc1ccccc1C2,T/C,"dose: 12.5 mg/kg/injection, vehicle: distilled water + Tween-80",102 % of control
same,T/C,"dose: 25.0 mg/kg/injection, vehicle: distilled water + Tween-80",114 % of control
same,T/C,"dose: 50.0 mg/kg/injection, vehicle: distilled water + Tween-80",101 % of control and 105 % of control
COC(=O)Nc1nc2ccc(SC)cc2c(=O)[nH]1,T/C,[5],99 % of control
same,T/C,[6],110 % of control
same,T/C,[7],100 % of control
same,T/C,[8],110 % of control
O=NN(CCCl)C(=O)NCCCl,T/C,"dose: 1.5 mg/kg/injection, vehicle: Klucel (hydroxypropylcellulose) (HPC)",105 % of control
same,T/C,"dose: 1.5 mg/kg/injection, vehicle: saline + alcohol",107 % of control
same,T/C,"dose: 3.0 mg/kg/injection, vehicle: Klucel (hydroxypropylcellulose) (HPC)",120 % of control
same,T/C,"dose: 3.0 mg/kg/injection, vehicle: saline + alcohol",121 % of control
same,T/C,"dose: 5.0 mg/kg/injection, vehicle: saline with Tween-80",303 % of control
same,T/C,"dose: 6.0 mg/kg/injection, vehicle: saline + alcohol",152 % of control
same,T/C,"dose: 10.0 mg/kg/injection, vehicle: saline with Tween-80",181 % of control
same,T/C,"dose: 12.0 mg/kg/injection, vehicle: Klucel (hydroxypropylcellulose) (HPC)",114 % of control
same,T/C,"dose: 12.0 mg/kg/injection, vehicle: saline + alcohol",180 % of control
Cc1cc(N2C(=O)CCSC2=S)ccc1Cl,T/C,[9],120 % of control
same,T/C,[5],97 % of control
same,T/C,[6],102 % of control
same,T/C,[7],111 % of control
same,T/C,[8],124 % of control
CC(=O)O[C@@]1(C)[C@@H](C)C(=O)O[C@@H]2CCN3CC=C(COC(=O)[C@]1(C)O)[C@H]23,T/C,[2],110 % of control
same,T/C,[3],113 % of control
same,T/C,[4],285 % of control
CCCC(=O)OCc1cc(=O)n(C)c2c3c4c(cc12)c(C)cc(=O)n4CO3,T/C,"dose: 3.12 mg/kg/injection, vehicle: Klucel (hydroxypropylcellulose) (HPC)",91 % of control
same,T/C,[10],97 % of control
same,T/C,[9],92 % of control
same,T/C,[6],118 % of control
Nc1nc(-c2ccccc2)c(Br)c(=O)[nH]1,T/C,[2],114 % of control
same,T/C,[3],107 % of control
same,T/C,[4],110 % of control
same,T/C,[11],92 % of control and 121 % of control
same,T/C,[12],100 % of control and 118 % of control
same,T/C,"dose: 800.0 mg/kg/injection, vehicle: saline with Tween-80",100 % of control
CC1OC(OC2CC(O)(C(=O)CO)Cc3c(O)c4c(c(O)c32)C(=O)c2ccccc2C4=O)CC(N)C1O (configuration not stated),T/C,"dose: 0.06 mg/kg/injection, vehicle: water",110 % of control
same,T/C,"dose: 0.12 mg/kg/injection, vehicle: other",105 % of control
same,T/C,"dose: 0.12 mg/kg/injection, vehicle: saline",108 % of control
same,T/C,"dose: 0.12 mg/kg/injection, vehicle: water",122 % of control
same,T/C,"dose: 0.25 mg/kg/injection, vehicle: other",113 % of control
same,T/C,"dose: 0.25 mg/kg/injection, vehicle: saline",103 % of control
same,T/C,"dose: 0.25 mg/kg/injection, vehicle: water",112 % of control
same,T/C,"dose: 0.5 mg/kg/injection, vehicle: saline",110 % of control
same,T/C,"dose: 0.5 mg/kg/injection, vehicle: water",120 % of control
same,T/C,"dose: 1.0 mg/kg/injection, vehicle: water",173 % of control
N#CC(OC1OC(COC2OC(CO)C(O)C(O)C2O)C(O)C(O)C1O)c1ccccc1 (configuration not stated),T/C,"dose: 25.0 mg/kg/injection, vehicle: water",92 % of control
same,T/C,"dose: 50.0 mg/kg/injection, vehicle: water",97 % of control
same,T/C,"dose: 100.0 mg/kg/injection, vehicle: water",98 % of control
same,T/C,"dose: 200.0 mg/kg/injection, vehicle: water",98 % of control
same,T/C,"dose: 400.0 mg/kg/injection, vehicle: water",98 % of control
same,T/C,"dose: 800.0 mg/kg/injection, vehicle: water",98 % of control
CCCCN(CCCC)C(Cl)=Nc1ccccc1,T/C,[10],106 % of control
same,T/C,[9],107 % of control
same,T/C,[5],94 % of control
same,T/C,[6],96 % of control
same,T/C,[7],98 % of control
NCCCNCCSP(=O)(O)O,T/C,[1],98 % of control
same,T/C,[2],98 % of control
same,T/C,[3],95 % of control
same,T/C,[4],106 % of control
same,T/C,[11],105 % of control
NC1(C(=O)O)CCCC1,T/C,"dose: 25.0 mg/kg/injection, vehicle: saline",102 % of control
same,T/C,"dose: 50.0 mg/kg/injection, vehicle: saline",109 % of control and 111 % of control and 120 % of control
same,T/C,"dose: 100.0 mg/kg/injection, vehicle: saline",121 % of control
CCCCCCCCCCCCCCCCCCOCC(COP(=O)([O-])OCC[N+](C)(C)C)OC (configuration not stated),T/C,"dose: 6.25 mg/kg/injection, vehicle: suspension in saline",96 % of control
same,T/C,"dose: 12.5 mg/kg/injection, vehicle: suspension in saline",99 % of control
same,T/C,"dose: 25.0 mg/kg/injection, vehicle: suspension in saline",100 % of control
COC1/C=C/O[C@@]2(C)Oc3c(C)c(O)c4c(O)c(cc(O)c4c3C2=O)NC(=O)/C(C)=C\C=C\[C@H](C)C(O)[C@@H](C)[C@@H](O)[C@@H](C)[C@H](OC(C)=O)[C@@H]1C (some centres not stated),T/C,[1],109 % of control
same,T/C,[2],106 % of control
same,T/C,[3],105 % of control
same,T/C,[4],101 % of control
same,T/C,[11],101 % of control
same,T/C,[12],100 % of control
OCCCN1CCCCC1CO (configuration not stated),T/C,"dose: 400.0 mg/kg/injection, vehicle: saline",96 % of control
same,T/C,"dose: 800.0 mg/kg/injection, vehicle: saline",97 % of control
